# Measured values: ChEMBL document CHEMBL1154622, “Structure-guided design of potent and selective pyrimidylpyrrole inhibitors of extracellular signal-regulated kinase (ERK) using conformational control” (J Med Chem, 2009)
# Columns and labels:
# [1] = target: MAP kinase-activated protein kinase 3 (Homo sapiens) (UniProt Q16644); experiment: Inhibition of MAPKAPK3 at 1 uM
# [2] = target: Tyrosine-protein kinase Fer (Homo sapiens) (UniProt P16591); experiment: Inhibition of FER at 1 uM
# [3] = target: Dual specificity mitogen-activated protein kinase kinase 7 (Homo sapiens) (UniProt O14733); experiment: Inhibition of MKK7 at 2 uM
# [4] = target: Mitogen-activated protein kinase kinase kinase 7 (Homo sapiens, UniProt O43318); experiment: Inhibition of TAK1
# [5] = Plasma concentration in mouse at 5 mg/kg, iv after 8 hrs; format: ADME, organism-based; parameters: dose 5 mg/kg, route intravenous
# [6] = target: Cyclin-dependent kinase 2 (Homo sapiens, UniProt P24941)
# [7] = target: Mitogen-activated protein kinase kinase kinase 10 (Homo sapiens, UniProt Q02779); experiment: Inhibition of MLK2
# [8] = target: Fibroblast growth factor receptor 2 (Homo sapiens) (UniProt P21802); experiment: Inhibition of FGFR2 at 1 uM
# [9] = target: Ribosomal protein S6 kinase alpha-6 (Homo sapiens) (UniProt Q9UK32); experiment: Inhibition of RSK4 at 1 uM
# [10] = target: Serine/threonine-protein kinase Nek2 (Homo sapiens) (UniProt P51955); experiment: Inhibition of NEK2 at 1 uM
# [11] = target: Serine/threonine-protein kinase PLK1 (Homo sapiens, UniProt P53350); experiment: Inhibition of PLK1
# [12] = target: Inhibitor of nuclear factor kappa-B kinase subunit beta (Homo sapiens) (UniProt O14920); conditions: 2 uM
# Sequence of Inhibitor of nuclear factor kappa-B kinase subunit beta (Homo sapiens) (O14920 whole entry): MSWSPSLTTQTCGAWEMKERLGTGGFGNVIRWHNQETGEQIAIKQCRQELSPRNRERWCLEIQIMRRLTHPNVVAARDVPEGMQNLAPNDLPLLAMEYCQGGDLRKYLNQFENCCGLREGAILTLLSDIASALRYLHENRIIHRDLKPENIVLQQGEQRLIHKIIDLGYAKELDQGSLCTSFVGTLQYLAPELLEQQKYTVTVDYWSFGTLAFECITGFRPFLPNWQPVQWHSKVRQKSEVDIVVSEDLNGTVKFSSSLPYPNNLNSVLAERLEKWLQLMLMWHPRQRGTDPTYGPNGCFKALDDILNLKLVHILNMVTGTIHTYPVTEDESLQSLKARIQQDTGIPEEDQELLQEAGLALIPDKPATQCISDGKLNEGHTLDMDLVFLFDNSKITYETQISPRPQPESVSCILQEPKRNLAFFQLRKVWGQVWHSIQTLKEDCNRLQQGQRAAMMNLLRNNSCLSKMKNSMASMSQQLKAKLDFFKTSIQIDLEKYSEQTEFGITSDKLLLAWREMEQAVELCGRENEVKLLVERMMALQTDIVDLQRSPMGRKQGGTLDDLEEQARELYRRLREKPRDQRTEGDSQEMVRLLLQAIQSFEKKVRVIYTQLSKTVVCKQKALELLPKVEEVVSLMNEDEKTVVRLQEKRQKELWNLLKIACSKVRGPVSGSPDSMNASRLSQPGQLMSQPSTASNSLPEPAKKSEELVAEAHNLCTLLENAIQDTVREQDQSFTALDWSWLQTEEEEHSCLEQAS
# Description: Inhibition of IKK-beta at 2 uM
# [13] = target: Insulin receptor (Homo sapiens) (UniProt P06213); experiment: Inhibition of INSR at 1 uM
# [14] = Clearance in mouse at 5 mg/kg, iv; format: ADME, organism-based; parameters: dose 5 mg/kg, route intravenous; conditions: in vivo
# [15] = target: Serine/threonine-protein kinase D2 (Homo sapiens) (UniProt Q9BZL6); experiment: Inhibition of PRKD2 at 1 uM
# [16] = target: Mitogen-activated protein kinase 13 (Homo sapiens) (UniProt O15264); experiment: Inhibition of P38delta at 2 uM
# [17] = target: Dual specificity tyrosine-phosphorylation-regulated kinase 1A (Homo sapiens) (UniProt Q13627); experiment: Inhibition of DYRK1A at 1 uM
# [18] = target: Macrophage-stimulating protein receptor (Homo sapiens) (UniProt Q04912); experiment: Inhibition of RON at 1 uM
# Sequence of Macrophage-stimulating protein receptor (Homo sapiens) (Q04912 25-304 limits assumed): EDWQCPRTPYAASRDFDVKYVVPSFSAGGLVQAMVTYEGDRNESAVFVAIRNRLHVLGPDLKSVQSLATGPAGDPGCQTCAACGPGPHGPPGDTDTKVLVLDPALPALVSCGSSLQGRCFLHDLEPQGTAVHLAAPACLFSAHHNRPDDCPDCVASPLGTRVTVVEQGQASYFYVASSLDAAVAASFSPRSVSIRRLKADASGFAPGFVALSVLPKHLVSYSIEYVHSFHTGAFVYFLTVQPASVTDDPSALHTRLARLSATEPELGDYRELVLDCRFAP
# Sequence of Macrophage-stimulating protein receptor (Homo sapiens) (Q04912 310-1400 limits assumed): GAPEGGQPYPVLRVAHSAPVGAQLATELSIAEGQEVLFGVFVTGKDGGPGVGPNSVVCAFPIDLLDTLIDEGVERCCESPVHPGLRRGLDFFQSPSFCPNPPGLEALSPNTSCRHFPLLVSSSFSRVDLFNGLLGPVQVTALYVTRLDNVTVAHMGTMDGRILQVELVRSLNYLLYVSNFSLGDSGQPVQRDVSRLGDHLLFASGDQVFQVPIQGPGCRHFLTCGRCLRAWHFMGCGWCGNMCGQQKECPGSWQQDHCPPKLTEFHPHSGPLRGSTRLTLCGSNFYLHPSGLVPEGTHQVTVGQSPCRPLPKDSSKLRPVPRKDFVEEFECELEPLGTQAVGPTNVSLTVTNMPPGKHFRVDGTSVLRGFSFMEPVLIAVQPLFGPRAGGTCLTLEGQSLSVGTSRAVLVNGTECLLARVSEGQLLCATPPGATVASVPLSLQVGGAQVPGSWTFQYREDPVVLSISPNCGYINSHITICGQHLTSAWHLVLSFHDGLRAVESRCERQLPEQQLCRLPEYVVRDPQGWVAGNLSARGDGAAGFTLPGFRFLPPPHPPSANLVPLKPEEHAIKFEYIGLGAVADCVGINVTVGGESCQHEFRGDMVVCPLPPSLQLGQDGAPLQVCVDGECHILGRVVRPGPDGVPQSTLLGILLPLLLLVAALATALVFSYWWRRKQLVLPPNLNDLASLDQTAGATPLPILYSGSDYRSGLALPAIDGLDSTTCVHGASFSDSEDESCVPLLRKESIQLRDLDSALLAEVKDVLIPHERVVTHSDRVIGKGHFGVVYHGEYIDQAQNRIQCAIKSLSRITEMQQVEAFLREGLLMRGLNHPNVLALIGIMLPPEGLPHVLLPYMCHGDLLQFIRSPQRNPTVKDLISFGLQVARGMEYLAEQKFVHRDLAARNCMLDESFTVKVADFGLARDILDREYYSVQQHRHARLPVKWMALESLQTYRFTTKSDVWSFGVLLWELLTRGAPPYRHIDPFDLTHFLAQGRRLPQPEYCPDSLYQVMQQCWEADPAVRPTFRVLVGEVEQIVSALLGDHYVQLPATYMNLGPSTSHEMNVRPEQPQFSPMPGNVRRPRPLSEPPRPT
# [19] = target: Mitogen-activated protein kinase 9 (Homo sapiens) (UniProt P45984); experiment: Inhibition of JNK2 at 2 uM
# [20] = target: Platelet-derived growth factor receptor alpha (Homo sapiens) (UniProt P16234); experiment: Inhibition of PDGFRalpha at 2 uM
# [21] = target: Calcium/calmodulin-dependent protein kinase type II subunit alpha (Homo sapiens) (UniProt Q9UQM7); experiment: Inhibition of CAMK2 at 2 uM
# [22] = Solubility in pH 7.4 buffer; format: physicochemical
# [23] = target: Tyrosine-protein kinase Blk (Homo sapiens) (UniProt P51451); experiment: Inhibition of BLK at 2 uM
# Sequence of Tyrosine-protein kinase Blk (Homo sapiens) (P51451 2-505 limits assumed): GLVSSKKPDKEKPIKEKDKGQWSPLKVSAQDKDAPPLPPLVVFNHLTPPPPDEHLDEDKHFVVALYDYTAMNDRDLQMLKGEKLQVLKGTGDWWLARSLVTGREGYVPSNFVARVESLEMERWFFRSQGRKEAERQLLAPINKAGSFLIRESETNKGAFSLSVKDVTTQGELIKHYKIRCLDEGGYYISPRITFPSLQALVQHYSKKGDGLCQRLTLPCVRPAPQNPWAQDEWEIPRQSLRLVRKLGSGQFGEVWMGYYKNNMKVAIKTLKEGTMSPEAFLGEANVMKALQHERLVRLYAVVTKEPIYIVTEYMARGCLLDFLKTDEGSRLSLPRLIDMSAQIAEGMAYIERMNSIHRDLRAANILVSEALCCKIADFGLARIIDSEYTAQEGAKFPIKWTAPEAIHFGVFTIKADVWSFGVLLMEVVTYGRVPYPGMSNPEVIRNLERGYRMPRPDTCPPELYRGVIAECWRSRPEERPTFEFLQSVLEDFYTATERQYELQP
# [24] = Plasma concentration in rat at 3 mg/kg, iv after 8 hrs; format: ADME, organism-based; parameters: dose 3 mg/kg, route intravenous
# [25] = target: Dual specificity tyrosine-phosphorylation-regulated kinase 2 (Homo sapiens) (UniProt Q92630); experiment: Inhibition of DYRK2 at 1 uM
# Sequence of Dual specificity tyrosine-phosphorylation-regulated kinase 2 (Homo sapiens) (Q92630 whole entry): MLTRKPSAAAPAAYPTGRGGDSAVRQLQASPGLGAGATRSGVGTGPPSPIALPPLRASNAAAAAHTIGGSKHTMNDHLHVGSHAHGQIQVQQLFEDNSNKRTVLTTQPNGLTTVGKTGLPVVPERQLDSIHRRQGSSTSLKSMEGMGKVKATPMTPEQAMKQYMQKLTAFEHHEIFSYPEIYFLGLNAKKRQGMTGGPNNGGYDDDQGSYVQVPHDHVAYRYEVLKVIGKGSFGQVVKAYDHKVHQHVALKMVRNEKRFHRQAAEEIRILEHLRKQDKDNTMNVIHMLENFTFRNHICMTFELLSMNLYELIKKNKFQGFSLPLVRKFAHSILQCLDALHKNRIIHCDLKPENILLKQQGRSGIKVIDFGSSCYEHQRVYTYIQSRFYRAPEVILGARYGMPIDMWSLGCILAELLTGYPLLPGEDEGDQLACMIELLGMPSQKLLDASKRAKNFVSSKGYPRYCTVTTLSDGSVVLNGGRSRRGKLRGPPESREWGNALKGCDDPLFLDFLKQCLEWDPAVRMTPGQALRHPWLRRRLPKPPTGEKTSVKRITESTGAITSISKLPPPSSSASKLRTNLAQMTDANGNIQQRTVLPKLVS
# [26] = Distribution coefficient, log D of the compound; format: physicochemical; conditions: octanol/water
# [27] = target: Vascular endothelial growth factor receptor 3 (Homo sapiens) (UniProt P35916); experiment: Inhibition of FLT-4 at 1 uM
# [28] = target: Inhibitor of nuclear factor kappa-B kinase subunit alpha (Homo sapiens) (UniProt O15111); conditions: 2 uM
# Description: Inhibition of IKKalpha at 2 uM
# [29] = target: Protein kinase C beta type (Homo sapiens) (UniProt P05771); experiment: Inhibition of PKCbeta2 at 2 uM
# [30] = AUC (0 to 8 hrs) in rat at 3 mg/kg, iv; format: ADME, organism-based; parameters: time < 8 hr, dose 3 mg/kg, route intravenous; conditions: plasma
# [31] = target: Vascular endothelial growth factor receptor 1 (Homo sapiens) (UniProt P17948); experiment: Inhibition of FLT-1 at 1 uM
# [32] = target: Phosphorylase b kinase gamma catalytic chain, liver/testis isoform (Homo sapiens) (UniProt P15735); experiment: Inhibition of PHKgamma2 at 1 uM
# [33] = target: Tyrosine-protein kinase Lyn (Homo sapiens) (UniProt P07948); experiment: Inhibition of LYN at 2 uM
# Sequence of Tyrosine-protein kinase Lyn (Homo sapiens) (P07948 2-512 limits assumed): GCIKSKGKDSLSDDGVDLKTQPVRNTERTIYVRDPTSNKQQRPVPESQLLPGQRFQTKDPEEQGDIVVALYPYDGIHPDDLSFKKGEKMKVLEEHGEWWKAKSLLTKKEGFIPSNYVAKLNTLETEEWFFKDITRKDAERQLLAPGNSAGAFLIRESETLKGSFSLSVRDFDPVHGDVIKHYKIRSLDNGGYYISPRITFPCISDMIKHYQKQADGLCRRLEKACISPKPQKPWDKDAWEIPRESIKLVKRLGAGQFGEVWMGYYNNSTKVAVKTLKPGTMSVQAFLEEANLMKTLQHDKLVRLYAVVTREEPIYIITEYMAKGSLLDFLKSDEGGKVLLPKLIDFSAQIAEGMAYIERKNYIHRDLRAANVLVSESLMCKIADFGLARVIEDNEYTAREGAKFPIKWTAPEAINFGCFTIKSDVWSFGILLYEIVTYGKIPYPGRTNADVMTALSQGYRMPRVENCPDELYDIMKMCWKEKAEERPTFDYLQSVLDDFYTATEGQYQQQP
# [34] = target: Mitogen-activated protein kinase kinase kinase 14 (Homo sapiens, UniProt Q99558); experiment: Inhibition of NIK
# [35] = target: Serine/threonine-protein kinase pim-2 (Homo sapiens) (UniProt Q9P1W9); experiment: Inhibition of PIM2 at 1 uM
# [36] = target: Proto-oncogene tyrosine-protein kinase ROS (Homo sapiens) (UniProt P08922); experiment: Inhibition of ROS at 1 uM
# [37] = target: Inhibitor of nuclear factor kappa-B kinase subunit epsilon (Homo sapiens, UniProt Q14164); experiment: Inhibition of IKKi
# Sequence of Inhibitor of nuclear factor kappa-B kinase subunit epsilon (Q14164 whole entry): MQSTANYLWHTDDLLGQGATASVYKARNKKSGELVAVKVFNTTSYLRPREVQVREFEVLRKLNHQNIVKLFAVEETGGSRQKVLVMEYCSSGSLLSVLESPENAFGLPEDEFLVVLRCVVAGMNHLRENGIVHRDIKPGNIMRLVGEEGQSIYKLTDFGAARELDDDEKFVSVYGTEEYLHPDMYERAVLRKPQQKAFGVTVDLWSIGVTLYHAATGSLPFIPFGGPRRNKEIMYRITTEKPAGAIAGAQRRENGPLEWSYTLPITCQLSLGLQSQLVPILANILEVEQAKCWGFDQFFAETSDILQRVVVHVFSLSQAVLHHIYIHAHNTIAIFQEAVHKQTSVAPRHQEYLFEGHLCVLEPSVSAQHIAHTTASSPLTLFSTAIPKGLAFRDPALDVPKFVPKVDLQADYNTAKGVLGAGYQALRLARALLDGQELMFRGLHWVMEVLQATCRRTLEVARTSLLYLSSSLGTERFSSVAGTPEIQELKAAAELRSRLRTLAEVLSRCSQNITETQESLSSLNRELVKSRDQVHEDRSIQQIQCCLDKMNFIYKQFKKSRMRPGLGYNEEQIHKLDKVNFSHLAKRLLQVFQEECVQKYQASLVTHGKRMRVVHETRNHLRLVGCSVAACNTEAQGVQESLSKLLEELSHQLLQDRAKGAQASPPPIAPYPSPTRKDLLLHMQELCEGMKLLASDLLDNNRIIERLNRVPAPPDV
# [38] = target: [Pyruvate dehydrogenase (acetyl-transferring)] kinase isozyme 1, mitochondrial (Homo sapiens) (UniProt Q15118); experiment: Inhibition of PDK1 at 2 uM
# [39] = target: Fibroblast growth factor receptor 3 (Homo sapiens) (UniProt P22607); experiment: Inhibition of FGFR3 at 1 uM
# [40] = target: RAC-gamma serine/threonine-protein kinase (Homo sapiens, UniProt Q9Y243); experiment: Inhibition of AKT3
# Sequence of RAC-gamma serine/threonine-protein kinase (Q9Y243 whole entry): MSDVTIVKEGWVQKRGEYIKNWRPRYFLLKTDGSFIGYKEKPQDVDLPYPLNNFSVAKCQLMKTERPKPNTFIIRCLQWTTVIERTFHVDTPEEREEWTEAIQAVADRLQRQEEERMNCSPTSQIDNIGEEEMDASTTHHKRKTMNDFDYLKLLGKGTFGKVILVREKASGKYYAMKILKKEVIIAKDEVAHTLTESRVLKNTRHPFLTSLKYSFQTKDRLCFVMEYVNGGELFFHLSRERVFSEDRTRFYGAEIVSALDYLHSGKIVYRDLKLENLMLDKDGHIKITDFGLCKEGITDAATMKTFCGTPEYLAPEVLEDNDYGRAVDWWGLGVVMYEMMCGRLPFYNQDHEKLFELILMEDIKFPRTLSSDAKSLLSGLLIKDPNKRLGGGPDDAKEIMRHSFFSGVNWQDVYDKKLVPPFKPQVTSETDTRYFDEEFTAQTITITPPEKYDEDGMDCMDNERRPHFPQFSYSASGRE
# [41] = Inhibition of PKA
# [42] = target: Focal adhesion kinase 1 (Homo sapiens, UniProt Q05397); experiment: Inhibition of FAK
# [43] = AUC (0 to 8 hrs) in mouse at 5 mg/kg, iv; format: ADME, organism-based; parameters: time < 8 hr, dose 5 mg/kg, route intravenous; conditions: plasma
# [44] = target: Cyclin-dependent kinase 5 (Homo sapiens) (UniProt Q00535); experiment: Inhibition of CDK5 at 1 uM
# [45] = target: Tyrosine-protein kinase HCK (Homo sapiens) (UniProt P08631); experiment: Inhibition of HCK at 1 uM
# [46] = target: Rho-associated protein kinase 1 (Homo sapiens, UniProt Q13464); experiment: Inhibition of ROCK1
# [47] = Half life in rat at 3 mg/kg, iv; format: ADME, organism-based; parameters: dose 3 mg/kg, route intravenous; conditions: in vivo
# [48] = target: Receptor-type tyrosine-protein kinase FLT3 (Homo sapiens, UniProt P36888); experiment: Inhibition of FLT3
# [49] = target: Protein kinase C theta type (Homo sapiens) (UniProt Q04759); experiment: Inhibition of PKCtheta at 2 uM
# [50] = Plasma concentration in mouse at 5 mg/kg, iv after 4 hrs; format: ADME, organism-based; parameters: dose 5 mg/kg, route intravenous
# [51] = target: Dual specificity mitogen-activated protein kinase kinase 1 (Homo sapiens, UniProt Q02750); experiment: Inhibition of MEK1
# [52] = target: Serine/threonine-protein kinase Sgk1 (Homo sapiens, UniProt O00141); experiment: Inhibition of SGK1
# [53] = target: Ephrin type-B receptor 2 (Homo sapiens) (UniProt P29323); experiment: Inhibition of EPH-B2 at 1 uM
# [54] = system: HT-29; experiment: Antiproliferative activity against human HT-29 cells; format: functional, cell-based
smiles,measurement,setting,value
Cc1cnc(Nc2ccc(F)cc2Cl)nc1-c1c[nH]c(C(=O)N[C@H](CO)c2cccc(Cl)c2)c1,inhibition,[1],5%
same,inhibition,[2],3%
same,inhibition,[3],6%
same,Ki,[4],3 µM
same,concentration at 8 h,[5],17 ng/mL
same,Ki,[6],0.852 µM
same,Ki,[7],> 10 µM
same,inhibition,[8],12%
same,inhibition,[9],11%
same,inhibition,[10],3%
same,Ki,[11],> 4 µM
same,inhibition,[12],8%
same,inhibition,[13],4%
same,clearance,[14],55 mL/min/kg
same,inhibition,[15],50%
same,inhibition,[16],54%
same,inhibition,[17],3%
same,inhibition,[18],1%
same,inhibition,[19],43%
same,inhibition,[20],3%
same,inhibition,[21],1%
same,solubility,[22],10 µM
same,inhibition,[23],7%
same,concentration at 8 h,[24],50 ng/mL
same,inhibition,[25],3%
same,logD,[26],4.3
same,inhibition,[27],8%
same,inhibition,[28],0%
same,inhibition,[29],4%
same,AUC(0-t) at 8 h,[30],1600 ng·h/mL
same,inhibition,[31],0%
same,inhibition,[32],4%
same,inhibition,[33],7%
same,Ki,[34],> 5 µM
same,inhibition,[35],3%
same,inhibition,[36],3%
same,Ki,[37],> 5 µM
same,inhibition,[38],10%
same,inhibition,[39],8%
same,Ki,[40],> 4 µM
same,Ki,[41],> 4 µM
same,Ki,[42],> 10 µM
same,AUC(0-t) at 8 h,[43],1600 ng·h/mL
same,inhibition,[44],24%
same,inhibition,[45],3%
same,Ki,[46],1.4 µM
same,half-life,[47],3.2 h
same,Ki,[48],1.4 µM
same,inhibition,[49],17%
same,concentration at 4 h,[50],79 ng/mL
same,Ki,[51],> 4 µM
same,Ki,[52],> 10 µM
same,inhibition,[53],0%
same,IC50,[54],0.048 µM
